According to the PolyMetriX glass transition set:
± gives the standard deviation of the reports.

Row | Structure (SMILES) | glass transition temperature
1 | *O[Si](*)(C)CCCCCCOc1ccc(C(=O)Oc2ccc(C(=O)Oc3ccc(C=C(C(=O)OCCCCCCCCC)C(=O)OCCCCCCCCC)cc3)cc2)cc1 (repeat unit) | -5.00 °C
2 | *O[Si](*)(C)CCCCCCCCCCCOC(=O)c1cc(OC(=O)c2ccc(OCCOCCOCCOCCOCCOCCOCCOCCOC)cc2)ccc1OC(=O)c1ccc(OCCOCCOCCOCCOCCOCCOCCOCCOC)cc1 (repeat unit) | -56.00 °C
3 | *Oc1ccc(NC(=O)c2cc(C(=O)Nc3ccc(*)cc3)cc(C(C)(C)C)c2)cc1 (repeat unit) | 268.00 °C
4 | *CCCCCC(*)CCC (repeat unit) | -68.00 °C
5 | *CC(*)(C)C(=O)OC1CCCCC1 (repeat unit) [Poly(cyclohexyl methacrylate)] | 101.92 ± 20 °C
6 | *CCCCOc1ccc(CCc2ccc(O*)cc2C)cc1 (repeat unit) | 24.90 °C
7 | */C=C/c1cc(OCC(CC)CCCC)c(/C=C/c2cc(OC)c(*)cc2OC)cc1OC (repeat unit) | 110.00 °C
8 | *CC(*)(C)C(=O)OCCCCCCOc1ccc(/N=N/c2ccncc2)cc1 (repeat unit) | 42.00 °C
9 | *CC(*)C(=O)Oc1ccc(Cl)cc1Cl (repeat unit) | 60.00 °C
10 | *CC(CCCCCC)C(CCCCCC)COC(=O)c1ccc(C(=O)O*)cc1 (repeat unit) | -15.50 °C
11 | *CCOC(=O)c1ccc(C2(C)CC(C)(C)c3ccc(C(=O)O*)cc32)cc1 (repeat unit) | 154.00 °C
12 | *Oc1ccc(OC(=O)c2ccc(C(*)=O)cc2Sc2ccccc2)cc1 (repeat unit) | 181.00 °C
13 | *C(=O)OCCN(CCOC(=O)c1ccc2c(c1)C(=O)N(c1c(C)cc(Cc3cc(C)c(N4C(=O)c5ccc(*)cc5C4=O)c(C)c3)cc1C)C2=O)c1ccccc1 (repeat unit) | 177.00 °C
14 | *CC(*)(C)C(=O)OCCc1ccc(/N=N/c2ccccc2)cc1 (repeat unit) | 80.00 °C

More lines, now with the values ahead:

Row | glass transition temperature | Structure (SMILES)
15 | 248.00 ± 25 °C | *c1ccc(Oc2cccc(Oc3ccc(N4C(=O)c5ccc(-c6cccc7c6C(=O)N(*)C7=O)cc5C4=O)cc3)c2)cc1 (repeat unit)
16 | 358.00 °C | *c1ccc(N(c2ccc(C#N)cc2)c2ccc(N3C(=O)c4ccc(-c5ccc6c(c5)C(=O)N(*)C6=O)cc4C3=O)cc2)cc1 (repeat unit)
17 | 154.00 °C | *C(=O)c1ccc(C(=O)c2ccc(Oc3ccc(C(C)(C)c4ccc(Oc5ccc(*)s5)cc4)cc3)s2)cc1 (repeat unit)
18 | 270.50 ± 13 °C | *c1cccc(N2C(=O)c3ccc(Oc4ccc5c(c4)C(=O)N(*)C5=O)cc3C2=O)c1 (repeat unit)
19 | 243.00 °C | *c1ccc(-c2ccc(-n3c(-c4ccc(Oc5ccc(C(=O)c6ccc(Oc7ccc(C(=O)c8ccc(Oc9ccc(-c%10nc%11ccccc%11n%10*)cc9)cc8)cc7)cc6)cc5)cc4)nc4ccccc43)cc2)cc1 (repeat unit)
20 | 234.00 °C | *Oc1ccc(C2(c3ccc(OC(=O)CCC(*)=O)cc3)c3ccccc3-c3ccccc32)cc1 (repeat unit)
21 | 210.00 °C | *Oc1ccc(C(c2ccccc2)(c2ccccc2)c2ccc(OC(=O)c3ccc(C(*)=O)cc3)cc2)cc1 (repeat unit)
22 | 217.00 °C | *c1ccc(Cc2ccc(-n3c(=O)c4cc5c(=O)n(*)c(=O)c5cc4c3=O)c(C(C)(C)C)c2)cc1C(C)(C)C (repeat unit)
23 | 133.00 °C | *CC(O)COc1ccc(C(C)(C)c2ccc(OCC(O)COc3cccc(NC(=O)c4cccc(C(=O)Nc5cccc(O*)c5)c4)c3)cc2)cc1 (repeat unit)
24 | 188.00 °C | *Cc1ccccc1CN(CC)c1ccc(/C=C(\C#N)C(=O)Nc2cccc(NC(=O)/C(C#N)=C/c3ccc(N(*)CC)cc3)c2)cc1 (repeat unit)
